Measured values from patent US4933332A, “11-desoxy-17-α-hydroxycorticosterone derivatives” (priority 1988, dated 1990).
Where “and” joins values, the source holds several entries; their conditions need not be identical. Identical values can stand only once.

What was measured:
Hepatoma G-60 = test: Antitumor effect on grafted hepatoma G-60; type: in vivo, mice and rats; conditions: in vivo
[1] = system: Spontaneous mammary tumors of mice; test: Effect on spontaneous breast tumors in repeated treatment courses; type: in vivo
Source text: For the study of the antitumor activity of the compounds according to the present invention use was made of regrafted hemoblastoses, grafted solid tumors, induced and spontaneous tumors of mice and rats. The following models were used: L 1210, P-388, hemocytoblastosis La, MOPC-406, viral lympholeukosis Mazurenko LMC-1, Ca-755, mammary carcinoma metastasizing into lungs KML, alveolar mammary cancer RMK-1, small intenstine adenocarcinoma AKATON, large intestine adenocarcinoma AKATOL, Lewis lung carcinoma LL, lung adenocarcinoma RL-67, hepatomae G-22c, G-60, G-61, sarcomae S-37 and S-180, DMBA (dimethylbenzanthracene)-induced and spontaneous mammary tumors, and […] (dimethylhydrazine)-induced tumors of the large intestine.
The compounds were administered to the animals hypodermally in kernel oil. For the purpose of comparison, a known hormonocytostatic estracyte (estra-1,3,5-(10)treine-3,17β-diol-3N-[bis-(2-chloroethyl)carbamate-17-sodium phosphate] was used which was administered hypodermally in a solution of a 0.9% NaCl, chlorphenacyl and chloroambucyl which were administered intraperitoneally in a 10% solution of ethanol, sarcolysine (β-[p-di(2-chloroethyl)aminophenyl]-α-alanine hydrochloride)--intraperitoneally in a 0.9% solution of NaCl, prednisolone (pregnadiene-1,4-triol-11β,17α,21-dione-3,20)--per os in a starch size.
Criteria of the antitumor activity of the compounds according to the present invention are: extension of the lifespan of the animals (ELA, %) and tumor growth inhibition (TGI, %). [formula] T--average lifespan of the treated animals; C--average lifespan of the control animals. [formula] O--average tumor volume in the group of treated animals; K--average tumor volume in the group of control animals.
In the case of using spontaneous or induced tumors, by means of carcinogenic substances, the criteria of the antitumor effect are: TGI, % or decrease in the tumor size, %, as compared to its initial value. The treatment of spontaneous and induced tumors was initiated after achieving, by these tumors, of a particular size excluding the possibility of a spontaneous regression.

[2] = biological target: T1, cytoplasmatic receptors of glucocorticoids (Homo sapiens, UniProt P04150); test: Interaction with cytoplasmatic receptors of glucocorticoids; type: binding
T1 construct: cytoplasmatic receptors of glucocorticoids
T1 sequence (P04150 whole entry): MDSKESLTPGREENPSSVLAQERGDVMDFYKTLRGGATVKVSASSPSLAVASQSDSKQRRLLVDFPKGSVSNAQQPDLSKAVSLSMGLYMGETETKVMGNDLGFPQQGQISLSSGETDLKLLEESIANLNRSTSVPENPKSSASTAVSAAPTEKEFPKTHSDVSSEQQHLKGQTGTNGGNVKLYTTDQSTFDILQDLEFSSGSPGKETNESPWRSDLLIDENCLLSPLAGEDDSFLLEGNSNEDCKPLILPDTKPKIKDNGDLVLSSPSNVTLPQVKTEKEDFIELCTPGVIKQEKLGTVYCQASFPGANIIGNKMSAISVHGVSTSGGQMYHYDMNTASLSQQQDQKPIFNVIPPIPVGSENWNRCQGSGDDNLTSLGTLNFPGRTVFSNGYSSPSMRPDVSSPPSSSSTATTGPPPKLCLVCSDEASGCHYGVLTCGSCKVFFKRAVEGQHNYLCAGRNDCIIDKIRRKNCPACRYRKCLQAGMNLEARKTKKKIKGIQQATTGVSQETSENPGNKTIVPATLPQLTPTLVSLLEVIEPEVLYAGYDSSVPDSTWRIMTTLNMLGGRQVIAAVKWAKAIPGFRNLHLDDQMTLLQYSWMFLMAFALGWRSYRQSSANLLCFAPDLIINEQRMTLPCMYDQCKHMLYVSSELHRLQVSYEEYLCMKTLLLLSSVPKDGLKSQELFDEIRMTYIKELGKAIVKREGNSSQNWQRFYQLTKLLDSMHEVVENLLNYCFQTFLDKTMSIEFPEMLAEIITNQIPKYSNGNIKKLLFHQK
Source text: The hormonal effect of 11-desoxy-17α-hydroxy-21-[p-di-(2-chloroethyl)aminophenylacetate] corticosterone is associated with exhibition of a glucocorticoidal activity thereby.

[3] = system: acceptor regions of chromatin of tumoral and normal cells (kidney tumor PA, normal kidney); test: Penetration into the cell nucleus and interaction with chromatin; set-up: species or system line Wistar; conditions: kidney tumor PA of rats
P-388 = test: Antitumor effect on grafted hemoblastoses (P-388), extension of lifespan; type: in vivo, mice and rats; conditions: in vivo
Hepatoma G-61 = test: Antitumor effect on grafted hepatoma G-61; type: in vivo, mice and rats; conditions: in vivo
[4] = system: adrenalectomized rat youngsters; test: Lifespan of adrenalectomized rat youngsters (biological test for the glucocorticoidal activity); type: in vivo; conditions: 25-days adrenalectomized rats
S-37 = test: Antitumor effect on grafted solid tumor S-37; type: in vivo, mice and rats; conditions: in vivo
[5] = system: cytoplasmatic receptors of glucocorticoids in human lung cancer; test: Inhibition of specific combining of [^3 H]-dexamethazone, human lung cancer; type: binding
Source text: The inhibition, thereby, of a specific combining of [^3 H]-dexamethazone in tumors of animals reaches 70-100%. 11-Desoxy-17-α-hydroxy-21-[p-di(2-chloroethyl)aminophenylacetate] corticosterone also reacts with cytoplasmatic receptors of glucocorticoids in tumors in human beings.

## C[C@]12CCC(=O)C=C1CC[C@@H]1[C@@H]2CC[C@@]2(C)[C@H]1CC[C@]2(O)C(=O)COC(=O)Cc1ccc(N(CCCl)CCCl)cc1 [11-desoxy-17α-hydroxy-21-[p-di(2-chloroethyl)-aminophenylacetate] corticosterone]
Hepatoma G-60
  Maximum tumor growth inhibition: 99%
[1]; Table 4
  activity in repeated treatment courses: reveals activity in repeated treatment courses
[1]; compared to the size prior to the treatment
  reduction in size of spontaneous tumors in breasts: causes reduction in size of induced and spontaneous tumors
[1]; spontaneous, mice, 15 mg/kg/24 h × 5, 2 courses, 3 weeks interval
  Increased lifespan: 11%
[1]; spontaneous, mice, 15 mg/kg/24 h × 5, 2 courses, 3 weeks interval, week 1
  Decrease or increase (+) of the tumor, % of the initial one: 23%
[1]; spontaneous, mice, 15 mg/kg/24 h × 5, 2 courses, 3 weeks interval, week 2
  Decrease or increase (+) of the tumor, % of the initial one: 37%
[1]; spontaneous, mice, 15 mg/kg/24 h × 5, 2 courses, 3 weeks interval, week 3
  Decrease or increase (+) of the tumor, % of the initial one: +7%
[1]; spontaneous, mice, 15 mg/kg/24 h × 5, 2 courses, 3 weeks interval, week 4
  Decrease or increase (+) of the tumor, % of the initial one: 64%
[1]; spontaneous, mice, 15 mg/kg/24 h × 5, 2 courses, 3 weeks interval, week 5
  Decrease or increase (+) of the tumor, % of the initial one: 20%
[1]; spontaneous, mice, 15 mg/kg/24 h × 5, 2 courses, 3 weeks interval, week 6
  Decrease or increase (+) of the tumor, % of the initial one: 50%
[1]; spontaneous, mice, 15 mg/kg/24 h × 5, 2 courses, 3 weeks interval, week 7
  Decrease or increase (+) of the tumor, % of the initial one: 25%
[1]; spontaneous, mice, 15 mg/kg/24 h × 5, 2 courses, 3 weeks interval, week 8
  Decrease or increase (+) of the tumor, % of the initial one: 16%
[2]
  Kd: 95 nM
[2]; [^3 H]-dexamethazone
  interaction with cytoplasmatic receptors of glucocorticoids: interacts with cytoplasmatic receptors of glucocorticoids and inhibits combining of [^3 H]-dexamethazone therewith
[3]
  penetration into cell nucleus and interaction with chromatin: penetrates into the cell nucleus and interacts with acceptor regions of chromatin of both tumoral and normal cells
P-388
  Extension of the lifespan of the animals (ELA): 81%
Hepatoma G-61
  Maximum tumor growth inhibition: 89%
[4]
  extension of lifespan of adrenalectomized rat youngsters: 113%
S-37
  Extension of the lifespan: 42%
  Maximum tumor growth inhibition: 99%
  Tumor growth inhibition: 99% and 94% and 91%
  recovery: 28%
S-37; 45 mg/kg
  Maximum tumor growth inhibition: 99%
[5]
  inhibition of specific combining of [^3 H]-dexamethazone: 83%
